Data taken from US9714266B2, “Estra-1,3,5(10),16-tetraene-3-carboxamides for inhibition of 17β-hydroxysteroid dehydrogenase (AKR1C3)” (priority 2013, dated 2017).
“And” between values parts separate entries of the source, which are not always exact repeats. Identical values can stand only once.

Assays:
AKR1C3 [1] = target: T1, AKR1C3 (Homo sapiens (Human), UniProt P42330); assay: AKR1C3 enzyme assay (coumberone reduction, fluorescence); type: biochemical; settings: recombinant human AKR1C3, coumberone 0.3 μM, NADPH 10 μM; read-out: AKR1C3 enzyme inhibition IC50
T1 sequence (P42330 whole entry): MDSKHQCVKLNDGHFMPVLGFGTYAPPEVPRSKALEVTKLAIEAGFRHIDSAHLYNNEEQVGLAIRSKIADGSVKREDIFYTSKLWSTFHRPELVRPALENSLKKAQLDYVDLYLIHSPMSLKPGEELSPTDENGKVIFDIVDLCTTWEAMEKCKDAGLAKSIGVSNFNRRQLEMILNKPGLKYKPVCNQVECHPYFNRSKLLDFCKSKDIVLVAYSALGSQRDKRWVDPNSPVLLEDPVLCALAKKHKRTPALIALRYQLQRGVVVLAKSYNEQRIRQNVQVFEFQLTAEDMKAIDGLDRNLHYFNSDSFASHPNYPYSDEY

Human CYP17A1 = Human CYP17A1 (Homo sapiens (Human), UniProt P05093); assay: Inhibition of Cyp17A1 (recombinant enzyme, 3H-progesterone conversion, HPLC); type: biochemical; settings: human CYP17, mean of 3 or 4 independent IC50 values; read-out: IC50 ± SD CYP17
Sequence of Human CYP17A1 (P05093 whole entry): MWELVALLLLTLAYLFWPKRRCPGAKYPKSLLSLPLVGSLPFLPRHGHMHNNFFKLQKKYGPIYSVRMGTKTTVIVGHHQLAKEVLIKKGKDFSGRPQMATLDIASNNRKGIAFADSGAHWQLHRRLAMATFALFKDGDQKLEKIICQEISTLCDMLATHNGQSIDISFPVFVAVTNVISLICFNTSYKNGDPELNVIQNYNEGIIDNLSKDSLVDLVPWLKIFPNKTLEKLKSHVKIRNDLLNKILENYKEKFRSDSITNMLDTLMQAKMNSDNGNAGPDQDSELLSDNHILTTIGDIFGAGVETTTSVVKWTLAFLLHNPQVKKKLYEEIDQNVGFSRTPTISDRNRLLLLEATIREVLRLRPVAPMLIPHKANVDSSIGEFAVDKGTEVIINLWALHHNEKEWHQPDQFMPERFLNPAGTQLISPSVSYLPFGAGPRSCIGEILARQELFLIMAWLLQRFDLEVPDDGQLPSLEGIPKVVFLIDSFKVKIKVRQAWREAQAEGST
Method: The inhibition of CYP17A1 by the test compounds was evaluated by means of recombinant enzyme. Human CYP17A1 was expressed in E. coli (Ehmer, P. B. et al.; J. Steroid Biochem. Mol. […] After evaporating the organic phase, the steroids were taken up in acetonitrile. 16α-Hydroxyprogesterone, 17α-hydroxyprogesterone and progesterone were separated with acetonitrile/water (45:55) as mobile phase on a C18 reverse phase chromatography column (Nucleodur C18 Gravity, 3 μm, Macherey-Nagel, Düren) in an HPLC System (Agilent 1100 Series, Agilent Technologies, Waldbronn). Detection and quantification of the steroids were conducted by means of a Radioflow detector (Berthold Technologies, Bad Wildbad). The inhibition was calculated by the following formula: [formula] Each value was calculated from at least three independent experiments.

AKR1C3 [2] = target: T1, AKR1C3; assay: AKR1C3 inhibition in a cell-based system (transfected HEK293 cells, coumberol fluorescence); settings: HEK293 cells transfected with AKR1C3 expression plasmid; read-out: Cellular AKR1C3 inhibition IC50
Method: The inhibition of AKR1C3 by the substances described in this invention was measured in a cell-based assay using […] as the substrate for the AKR1C3 (Halim, M., Yee, D. J., and Sames, D., J. AM. CHEM. SOC. 130, 14123-14128 (2008) and Yee, D. J., Balsanek, V., Bauman, D. R., Penning, T. M., and Sames, D., Proc. Natl. Acad. Sci. USA 103, 13304-13309 (2006)) (cf. Example 48).
The cell system used was HEK293 cells (ATCC, USA) (cell culture medium: DMEM, 1.5 g of glucose, 10% FCS, PSG). The cells were transfected with an AKR1C3 expression plasmid (pCMV6-AC-AKR1C3, GenBank Accession No. NM_003739.4) overnight (X-tremeGENE HP, Roche). The next morning, the cells were sown into black 96-well culture plates with a cell density of 40 000 cells/well (Greiner Bio-One, Frickenhausen, Germany). 7 h later, the cells were incubated with the test substances (dissolved in 100× concentration in DMSO, final concentration between 10^−11M and 10^−5M) and […] (dissolved in cell culture medium, final concentration 5×10^−6M) overnight. The following morning, the fluorescence of coumberol was measured at 535 nm (excitation at 355 nm) with a suitable measuring instrument (Mithras, from Berthold). […] The data were normalized (transfected cells without inhibitor, only DMSO=0% inhibition; transfected cells, 10 μM EM-1404 inhibitor [F. Labrie et al. U.S. Pat. No. 6,541,463, 2003]=100% inhibition) and IC50 values were calculated by a 4-parameter fit.

C[C@]12CC[C@@H]3c4ccc(C(N)=O)cc4CC[C@H]3[C@@H]1CC=C2c1cncc(F)c1 [Example 4, 17-(5-fluoropyridin-3-yl)oestra-1,3,5(10),16-tetraene-3-carboxamide]
IC50 (AKR1C3 [1]): 4 nM | IC50 (Human CYP17A1): > 20000 nM

C[C@]12CC[C@@H]3c4ccc(C(=O)NCC(O)C(F)(F)F)cc4CC[C@H]3[C@@H]1CC=C2c1cncc(F)c1 (mixture of isomers) [Example 20, 17-(5-fluoropyridin-3-yl)-N—[(RS)-3,3,3-trifluoro-2-hydroxypropyl]oestra-1,3,5(10),16-tetraene-3-carboxamide]
IC50 (AKR1C3 [1]): 12 nM and 8 nM and 20 nM and 16 nM | IC50 (Human CYP17A1): > 20000 nM | IC50 (AKR1C3 [2]): 32 nM and 42 nM
